According to patent US5089506A, “Ethanobicyclic amine derivatives for CNS disorders” (G. D. Searle & Co., priority 1990, dated 1992):
Read-outs that look alike come from different tables or passages of the source.

How the values were obtained:
NMDA receptor = conditions: C. Carter et al, J. Pharm Exp. Ther., 247(3), 1222-1232 (1988); cited from earlier work
sigma receptor = molecular target: T1, sigma receptor (Rattus norvegicus, UniProt Q9R0C9); assay: Radioreceptor assay: sigma receptor binding (displacement of [3H]-3-(+)-PPP) in crude rat brain membranes; set-up: species or system male Sprague-Dawley rats
T1 construct: crude membrane preparations were prepared as follows; Brains from male Sprague-Dawley rats; from tissue; host or cells: whole brain of male Sprague-Dawley rats, crude membranes
Procedure: To determine the effects of the compounds in a sigma receptor assay, crude membrane preparations were prepared as follows. Brains from male Sprague-Dawley rats were homogenized in 10 volumes (wt/vol) of 0.32M sucrose, using a Polytron grinder. The homogenate was centrifuged at 900×g for 10 minutes at 4° C. The supernatant was collected and centrifuged at 22,000×X g for 20 minutes at 4° C. The pellet was resuspended in 10 volumes of 50 mM Tris/HCl buffer (pH 7.4) and centrifuged at 22,000×g for 20 minutes at 4° C. The pellet was resuspended in 5 mM Tris/HCl buffer (pH 7.4) to give a final concentration of 250 mg/ml of the crude material. Incubation tubes were prepared in triplicate and contained 0.1 ml of tissue suspension, 2 nM of [^3 H]-(+)-1-propyl-3-(3-hydroxyphenyl)piperidine [^3 H]-3-(+)-PPP, and varying concentrations of the displacing ligand (0.1-1000 nM) in a final volume of 0.5 ml. After a 1 hr incubation at room temperature, the contents of the test tubes were filtered through GS filter paper which had been presoaked for at least 2 hours in 0.05% polyethyleneimine. The test tubes were rinsed three times with Tris/HCl buffer. Radioactivity on the filters was determined using liquid scintillation spectrometry and inhibition curves were calculated according to the method of Cheng and Prusoff [Biochem. Pharmacol., 22, 3099-3108 (1973)].

[1] = system: N-allylnormetazocine-induced stereotyped behavior; assay: Blockade of agonist (N-allylnormetazocine)-induced stereotyped behavior and ataxia; type: in vivo; conditions: ip, N-allylnormetazocine 15 mg/kg i.p.
Procedure: Compounds of the invention were evaluated for their ability to block the effects of N-allylnormetazocine on the induction of stereotyped behavior and ataxia. To test for antagonism, drugs are administered at varying times before i.p. administration of 15 mg/kg of N-allylnormetazocine. Behavioral and ataxia ratings are taken at 2.5 minutes, 5 minutes, and every 5 minutes thereafter until the animal returns to control behavior. […] The lowest dose of the test compound which is capable of blocking the stereotyped behavior and ataxia induced by N-allylnormetazocine was determined.

[2] = [3H]-3-(+)-PPP 2 nM, rat brain crude membranes, 1 hr, room temperature, ± SEM, Table II, read-out: Ki apparent (units ± SEM)
[3] = test compound i.p. (route given for the 1 mg/kg dose), read-out: dose which fully blocked N-allylnormetazocine-induced stereotyped behavior (lowest dose capable of blocking)

T1 sequence (Q9R0C9 whole entry): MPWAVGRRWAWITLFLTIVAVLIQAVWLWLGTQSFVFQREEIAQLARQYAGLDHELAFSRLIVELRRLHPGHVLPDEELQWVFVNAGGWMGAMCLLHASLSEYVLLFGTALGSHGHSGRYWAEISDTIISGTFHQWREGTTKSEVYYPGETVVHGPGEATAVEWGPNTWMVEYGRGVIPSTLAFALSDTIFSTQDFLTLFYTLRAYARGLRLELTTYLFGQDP

1-(4-chlorophenyl)-2-[1-(4-fluorophenyl)piperidinyl]ethanol
found to be non-competitive NMDA receptor antagonists (NMDA receptor): non-competitive NMDA receptor antagonists

c1ccc2c(c1)C1CCC2C(N2CCCCC2)C1 (centres unmarked) [Compound No. 1, 1-(2-Benzobicyclo[2.2.2]octenyl)piperidine]
Ki (sigma receptor; [2]): 137 ± 9 nM

c1ccc2c(c1)C1CCC2C(CN2CCCCC2)C1 (centres unmarked) [Compound No. 2, 1-(2-Benzobicyclo[2.2.2]octenyl)methylpiperidine]
Ki (sigma receptor; [2]): 11 ± 6 nM
minimal effective dose [1, 3]: 3 mg/kg

CN1CCN(CC2CC3CCC2c2ccccc23)CC1 (centres unmarked) [Compound No. 3, 1-(2-Benzobicyclo[2.2.2]octenyl)methyl-4-methylpiperazine]
Ki (sigma receptor; [2]): 4 ± 2 nM
minimal effective dose [1, 3]: 1 mg/kg

CN1CCN(C2CC3CCC2c2ccccc23)CC1 (centres unmarked) [Compound No. 4, 1-(2-benzobicyclo[2.2.2]octenyl)-4-methylpiperazine]
Ki (sigma receptor; [2]): 170 ± 40 nM

c1ccc2c(c1)C1CC(CN3CCCCC3)C2C1 (centres unmarked) [Compound No. 5, 1-(2-Benzobicyclo[2.2.1]heptenyl)methylpiperidine]
Ki (sigma receptor): 9 ± 4 nM
minimal effective dose [1, 3]: 1 mg/kg

c1ccc2c(c1)C1CC2C(N2CCCCC2)C1 (centres unmarked) [Compound No. 6, 1-(2-Benzobicyclo[2.2.1]heptenyl)piperidine]
Ki (sigma receptor): 0.075 ± 0.06 nM
minimal effective dose ([1]; read-out: dose which blocked these same responses (N-allylnormetazocine-induced stereotyped behavior; not stated as fully)): 10 mg/kg

CN1CCN(CC2CC3CC2c2ccccc23)CC1 (centres unmarked) [Compound No. 7, 1-(2-benzobicyclo[2.2.1]-heptenyl)methyl-4-methylpiperazine]
Ki (sigma receptor): 22000 ± 2000 nM

CN1CCN(C2CC3CC2c2ccccc23)CC1 (centres unmarked) [Compound No. 8, 1-(2-Benzobicyclo[2.2.1]heptenyl)-4-methylpiperazine]
Ki (sigma receptor): 943 ± 3 nM

CC(C(O)c1ccc(O)cc1)N1CCC(Cc2ccccc2)CC1 (centres unmarked) [ifenprodil]
found to be non-competitive NMDA receptor antagonists (NMDA receptor): non-competitive NMDA receptor antagonists
